Experimental data as given in PMC8587849, “Antimicrobial and Anticancer Application of Silver(I) Dipeptide Complexes” (Molecules, 2021).
Where two headings read alike, the source gives them in different places. Where a SMILES comes first, the peptide text is derived from it.

How the values were obtained:
BJ-5ta = test: MTS assay on fibroblasts; assay type: cell-based; conditions: BJ-5ta human skin fibroblasts, 72 h
Description: (§1) After 72 h of incubation, 10 µL of MTS was added to each well. […] IC50 values were calculated from MTS analyses.

MDA-MB-231 = test: MTS antiproliferative assay; assay type: cell-based, human; conditions: 72 h
Description: (§2) Cells were maintained in standard conditions with an atmosphere containing 5% CO2 at 37 °C.
as §1

Jurkat = test: MTS antiproliferative assay; assay type: cell-based, human; conditions: 72 h
Description: as §2, §1

BLM = test: MTS antiproliferative assay; assay type: cell-based, human; conditions: BLM; MTS, 72 h
Description: as §2, §1

HCT116 = test: MTS antiproliferative assay; assay type: cell-based, human; conditions: 72 h
Description: as §2, §1

MCF-7 = test: MTS antiproliferative assay; assay type: cell-based, human; conditions: 72 h
Description: as §1

HeLa = test: MTS antiproliferative assay; assay type: cell-based, human; conditions: 72 h
Description: as §1

A.flavus = test: Antifungal activity (filamentous fungi); assay type: cell-based; conditions: read-out: IC50 and MIC100 (class symbol)
Description: (§3) Cultures of bacteria (in Mueller-Hinton broth, MHB) and yeasts (in Sabouraud’s growth medium, SB) were incubated under shaking (250 rpm) at 37 °C. The growth of bacteria and yeasts was evaluated by measuring the absorbance of the growing cultures (A550) until the cultures reached the stationary growth phase. […] During culturing, the diameters of growing fungal colonies were measured at regular intervals [71, 72]. […] The final concentration of DMSO never exceeded 1.0 vol. % in the control or treated samples. […] The IC50 and MIC90 with respect to MIC80 values were evaluated from toxicity curves.

[1] = system: Microsporum gypseum CCM F-8342; test: Antifungal activity (filamentous fungi), macrodilution on solidified PDA; assay type: cell-based; conditions: M.gypseum, read-out: IC50 and MIC100 (class symbol)
Description: as §3

[2] = system: Alternaria alternata CCM F-128; test: as above; assay type: cell-based; conditions: A. alternata, read-out: IC50 and MIC100 (class symbol)
Description: as §3

[3] = system: Escherichia coli (E. coli) CCM 3988; test: Antibacterial activity, macrodilution method; assay type: cell-based; conditions: free ligands
Description: (§4) Cultures of bacteria (in Mueller-Hinton broth, MHB) and yeasts (in Sabouraud’s growth medium, SB) were incubated under shaking (250 rpm) at 37 °C. The growth of bacteria and yeasts was evaluated by measuring the absorbance of the growing cultures (A550) until the cultures reached the stationary growth phase. […] The final concentration of DMSO never exceeded 1.0 vol. % in the control or treated samples. […] The IC50 and MIC90 with respect to MIC80 values were evaluated from toxicity curves.

Candida albicans SC 5314 = test: Antifungal activity (yeast), macrodilution method; assay type: cell-based; conditions: C. albicans
Description: as §3

[4] = system: methicillin-resistant Staphylococcus aureus L12; test: Antibacterial activity, macrodilution method; assay type: cell-based; conditions: S. aureus L12; free ligands
Description: as §4

[5] = system: Staphylococcus aureus CCM 3953; test: Antibacterial activity, macrodilution method; assay type: cell-based; conditions: S. aureus; free ligands
Description: as §4

[6] = system: Rhizopus oryzae CCM F-8284; test: Antifungal activity (filamentous fungi), macrodilution on solidified PDA; assay type: cell-based
Description: as §3

[7] = system: Staphylococcus epidermidis CCM 7221; test: Antibacterial activity, macrodilution method; assay type: cell-based; conditions: S.epidermidis; free ligands
Description: as §4

[8] = system: Candida parapsilosis ATCC 22019; test: Antifungal activity (yeast), macrodilution method; assay type: cell-based; conditions: C. parapsilosis
Description: as §4

[9] = read-out: IC50 and MIC100 (class symbol)

| SMILES | IC50 (BJ-5ta) | IC50 (MDA-MB-231) | IC50 (Jurkat) | IC50 (BLM) | IC50 (HCT116) | IC50 (MCF-7) | IC50 (HeLa) | IC50 and MIC90 (class symbol) [3] | IC50 and MIC80 (class symbol) (Candida albicans SC 5314) | IC50 and MIC90 (class symbol) [4] | IC50 and MIC90 (class symbol) [5] | IC50 and MIC90 (class symbol) [7] | IC50 and MIC80 (class symbol) [8] | IC50 (A.flavus) | IC50 [1] | IC50 [2] | IC50 [6, 9] | also measured |
| --- | --- | --- | --- | --- | --- | --- | --- | --- | --- | --- | --- | --- | --- | --- | --- | --- | --- | --- |
| O=[N+]([O-])[O-].[Ag+] [AgNO3, silver(I) nitrate] | 24.3 µM | 25.9 µM | 6.6 µM | 31.5 µM | 21.8 µM | 13.2 µM | 45.3 µM |  |  |  |  |  |  |  |  |  |  |  |
| C[C@H](N)C(=O)O [Ala, alanine, reference compound] |  |  |  |  |  |  |  | N (N- not active IC50 and MIC90 values > 2 mmol.l-1) | N (N- not active IC50 and MIC values > 2 mmol.l-1) | N (N- not active IC50 and MIC90 values > 2 mmol.l-1) | N (N- not active IC50 and MIC90 values > 2 mmol.l-1) | N (N- not active IC50 and MIC90 values > 2 mmol.l-1) | N (N- not active IC50 and MIC values > 2 mmol.l-1) |  |  |  |  | IC50 (A.flavus; Aspergillus flavus): > 2000 µM; IC50 ([1]; Nannizzia gypsea, CCMF8342): > 2000 µM; IC50 ([2]; Alternaria alternata, CCMF128): > 2000 µM; IC50 ([6]; Rhizopus arrhizus, CCMF8284, read-out: IC50 and MIC100 (class symbol)): > 2000 µM |
| N.N.[Cl][Pt][Cl] [cisPt, cisplatin] | 37.9 µM | 7.1 µM | 6.3 µM | 29.5 µM | 7.4 µM | 29.7 µM | 35.4 µM |  |  |  |  |  |  |  |  |  |  |  |
| C[C@H](NC(=O)CN)C(=O)O [HGlyAla, Glycyl-L-Alanine, reference compound] (H-Gly-Ala-OH) | > 300 µM | > 300 µM | > 300 µM | > 300 µM | > 300 µM | > 300 µM | > 300 µM | N (N- not active IC50 and MIC90 values > 2 mmol.l-1) | N (N- not active IC50 and MIC values > 2 mmol.l-1) | N (N- not active IC50 and MIC90 values > 2 mmol.l-1) | N (N- not active IC50 and MIC90 values > 2 mmol.l-1) | N (N- not active IC50 and MIC90 values > 2 mmol.l-1) | N (N- not active IC50 and MIC values > 2 mmol.l-1) | > 2000 µM | > 2000 µM | > 2000 µM | > 2000 µM |  |
| NCC(=O)N[C@@H](CC(=O)O)C(=O)O [H2GlyAsp, Glycyl-L-Aspartic acid, reference compound] (H-Gly-Asp-OH) | > 300 µM | > 300 µM | > 300 µM | > 300 µM | > 300 µM | > 300 µM | > 300 µM | N (N- not active IC50 and MIC90 values > 2 mmol.l-1) | N (N- not active IC50 and MIC values > 2 mmol.l-1) | N (N- not active IC50 and MIC90 values > 2 mmol.l-1) | N (N- not active IC50 and MIC90 values > 2 mmol.l-1) | N (N- not active IC50 and MIC90 values > 2 mmol.l-1) | N (N- not active IC50 and MIC values > 2 mmol.l-1) | > 2000 µM | > 2000 µM | > 2000 µM | > 2000 µM |  |
| NCC(=O)NCC(=O)O [HGlyGly, Glycyl-L-Glycine, reference compound] (H-Gly-Gly-OH) |  |  |  |  |  |  |  | N (N- not active IC50 and MIC90 values > 2 mmol.l-1) | N (N- not active IC50 and MIC values > 2 mmol.l-1) | N (N- not active IC50 and MIC90 values > 2 mmol.l-1) | N (N- not active IC50 and MIC90 values > 2 mmol.l-1) | N (N- not active IC50 and MIC90 values > 2 mmol.l-1) | N (N- not active IC50 and MIC values > 2 mmol.l-1) | > 2000 µM | > 2000 µM | > 2000 µM | > 2000 µM |  |
| NCC(=O)O [Gly, glycine, reference compound] |  |  |  |  |  |  |  | N (N- not active IC50 and MIC90 values > 2 mmol.l-1) | N (N- not active IC50 and MIC values > 2 mmol.l-1) | N (N- not active IC50 and MIC90 values > 2 mmol.l-1) | N (N- not active IC50 and MIC90 values > 2 mmol.l-1) | N (N- not active IC50 and MIC90 values > 2 mmol.l-1) | N (N- not active IC50 and MIC values > 2 mmol.l-1) | > 2000 µM | > 2000 µM | > 2000 µM | > 2000 µM |  |
